Read-outs that look alike come from different tables or passages of the source.
Assays:
[1] = system: influenza A H1N1 (A/WSN/33); conditions: cellular assay; cited from earlier work
NA (H1N1,09) = NA (H1N1,09) (Influenza A virus, UniProt C3W5S3); experiment: biochemical
NA (H5N1) [2] = molecular target: T1, NA (H5N1) (Influenza A virus, UniProt K0C216); experiment: biochemical
NA (H7N9) = format: biochemical; conditions: 200 µM
NA (H5N1) [3] = molecular target: T1, NA (H5N1); format: biochemical, Influenza A virus A/Hubei/1/2011(H5N1)
Influenza B (B/Lee/40) = experiment: microbe, parasite or virus in culture; format: cell-based
[4] = system: MDCK cells (Madin-Darby Canine Kidney cells)
[5] = system: H5N2 (A/Duck/Pennsylvania/84); experiment: microbe, parasite or virus in culture; format: cell-based; conditions: unidentified influenza virus, H5N2, MDCK
in vitro [6] = conditions: human
in vitro [7] = conditions: dog

## C/C(=C\CC[C@@H](C)[C@H]1CC[C@@]2(C)C3=C(CC[C@]12C)[C@@]1(C)CC[C@H](O)C(C)(C)[C@@H]1CC3=O)CO [lucidadiol]
[1]
  IC50: 220 µM

## CC(=O)O[C@H]1C[C@H]([C@H](C)CC/C=C(\C)C(=O)O)[C@@]2(C)CC=C3C(=CC[C@H]4C(C)(C)C(=O)CC[C@]34C)[C@]12C [Compound 1, Ganoderic acid T-Q]
NA (H1N1,09); 200 μM of each compound, n = 3, means ± standard deviation
  Inhibition rate (%) NA(H1N1,09): 81.7 ± 1.7%
NA (H1N1,09); in vitro NA inhibition assay (n = 3)
  IC50: 5.6 ± 1.9 µM
NA (H5N1) [2]
  IC50: 1.2 ± 1 µM
NA (H5N1) [2]; 200 µM
  Inhibition rate (%) NA (H5N1): 94.4 ± 0.4%
NA (H7N9)
  Inhibition rate (%) NA(H7N9): 27.4 ± 1.2%
NA (H5N1) [3]
  Kiu (ESI dissociation constant): 17.39
  higher affinity to free NA than to the NA-substrate complex: 2.5 fold
  mode of inhibition: mixed inhibition mode
Influenza B (B/Lee/40); read-out: IC50
  IC50: 190 µM
MCF7 cells
  CC50: 28.2 ± 0.8 µM
[4]
  CC50: 41.1 µM

## CC(CC(=O)C[C@@](C)(O)C1=C[C@H](O)[C@]2(C)[C@]1(C)C(=O)C=C1[C@@]3(C)CCC(=O)C(C)(C)[C@@H]3C[C@H]3O[C@@]132)C(=O)O (some centres unmarked) [applanoxidic acid G]
[1]
  IC50: 190 µM

## C/C(=C\CC[C@@H](C)[C@H]1C[C@H](O)[C@@]2(C)C3=CC[C@H]4C(C)(C)C(=O)CC[C@]4(C)C3=CC[C@]12C)C(=O)O [Compound 2, Ganoderic acid TR]
NA (H5N1) [2]; read-out: Inhibition rate (%) NA (H5N1)
  inhibition at 200 µM: 96.5 ± 0.3%
NA (H7N9)
  Inhibition rate (%) NA(H7N9): 24.0 ± 1.8%
[5]
  IC50: 324 µM
Influenza B (B/Lee/40); Influenza B virus, MDCK
  IC50: 166 µM
In vitro [6]
  CC50: 91.6 ± 3.4 µM
In vitro [7]
  CC50: 299 µM

## CC(=CCC[C@@H](C)[C@H]1CC[C@@]2(C)C3=CC[C@H]4C(C)(C)[C@@H](O)CC[C@]4(C)C3=CC[C@]12C)CO [ganodermadiol]
[1]
  IC50: > 220 µM

Reference: PMC4549708, “Inhibition of neuraminidase by Ganoderma triterpenoids and implications for neuraminidase inhibitor design” (Scientific Reports, 2015)
